In US20260285850A1, “SUBSTITUTED OXAZOLIDINONES AND IMIDAZOLINONES AS HERBICIDES” (FMC CORPORATION, priority 2023, published 2026):

What was measured:
Assay type in all cases: in vivo
[1] = tested on: kochia (Bassia scoparia); experiment: Test A preemergence soil spray, visual injury rating 0-100; conditions: 10 days, 0 = no effect, 100 = complete control
Description: (§1) Seeds of plant species selected from barnyardgrass (Echinochloa crus-galli), blackgrass (Alopecurus myosuroides), corn (Zea mays), foxtail, giant (giant foxtail, Setaria faberi), green foxtail (Setaria viridis), goosegrass (Eleusine indica), kochia (Bassia scoparia), oat, wild (wild oat, Avena fatua), palmer (palmer amaranth, palmer pigweed, Amaranthus palmeri), ragweed (common ragweed, Ambrosia artemisiifolia), ryegrass, Italian (italian ryegrass, Lolium multiflorum), soybean (Glycine max) and wheat (Triticum aestivum) were planted into a blend of loam soil and sand and treated preemergence with a directed soil spray using test chemicals formulated in a non-phytotoxic solvent mixture which included a surfactant.
(§2) At the same time, plants selected from these crops and weed species and also galium (catchweed bedstraw, Galium aparine) and horseweed (Erigeron canadensis) were planted in pots containing the same blend of loam soil and sand and treated with postemergence applications of test chemicals formulated in the same manner. Plants ranged in height from 2 to 10 cm and were in the one- to two-leaf stage for the postemergence treatment. Treated plants and untreated controls were maintained in a greenhouse for 10 days, after which time all treated plants were compared to untreated controls and visually evaluated for injury. Plant response ratings, summarized in Table A, are based on a 0 to 100 scale where 0 is no effect and 100 is complete control. A dash (-) response means no test result.

[2] = tested on: barnyardgrass (Echinochloa crus-galli); experiment: as above; conditions: 10 days, 0 = no effect, 100 = complete control
Description: as §1, §2

[3] = tested on: ryegrass, Italian (italian ryegrass, Lolium multiflorum); experiment: as above; conditions: 10 days, 0 = no effect, 100 = complete control
Description: as §1, §2

[4] = tested on: oat, wild (wild oat, Avena fatua); experiment: as above; conditions: 10 days, 0 = no effect, 100 = complete control
Description: as §1, §2

[5] = tested on: blackgrass (Alopecurus myosuroides); experiment: as above; conditions: 10 days, 0 = no effect, 100 = complete control
Description: as §1, §2

[6] = tested on: wheat (Triticum aestivum); experiment: as above; conditions: 10 days, 0 = no effect, 100 = complete control
Description: as §1, §2

[7] = tested on: green foxtail (Setaria viridis); experiment: as above; conditions: 10 days, 0 = no effect, 100 = complete control
Description: as §1, §2

[8] = tested on: ragweed (common ragweed, Ambrosia artemisiifolia); experiment: as above; conditions: 10 days, 0 = no effect, 100 = complete control
Description: as §1, §2

[9] = tested on: soybean (Glycine max); experiment: as above; conditions: 10 days, 0 = no effect, 100 = complete control
Description: as §1, §2

[10] = tested on: palmer (palmer amaranth, palmer pigweed, Amaranthus palmeri); experiment: as above; conditions: 10 days, 0 = no effect, 100 = complete control
Description: as §1, §2

[11] = tested on: corn (Zea mays); experiment: as above; conditions: 10 days, 0 = no effect, 100 = complete control
Description: as §1, §2

[12] = tested on: kochia (Bassia scoparia); experiment: Test A postemergence application, visual injury rating 0-100; conditions: 10 days
Description: as §1, §2

[13] = tested on: barnyardgrass (Echinochloa crus-galli); experiment: as above; conditions: 10 days
Description: as §1, §2

[14] = tested on: ryegrass, Italian (italian ryegrass, Lolium multiflorum); experiment: as above; conditions: 10 days
Description: as §1, §2

[15] = tested on: oat, wild (wild oat, Avena fatua); experiment: as above; conditions: 10 days
Description: as §1, §2

[16] = tested on: blackgrass (Alopecurus myosuroides); experiment: as above; conditions: 10 days
Description: as §1, §2

[17] = tested on: horseweed (Erigeron canadensis); experiment: as above; conditions: 10 days
Description: as §1, §2

[18] = tested on: wheat (Triticum aestivum); experiment: as above; conditions: 10 days
Description: as §1, §2

[19] = tested on: green foxtail (Setaria viridis); experiment: as above; conditions: 10 days
Description: as §1, §2

[20] = tested on: ragweed (common ragweed, Ambrosia artemisiifolia); experiment: as above; conditions: 10 days
Description: as §1, §2

[21] = tested on: soybean (Glycine max); experiment: as above; conditions: 10 days
Description: as §1, §2

[22] = tested on: palmer (palmer amaranth, palmer pigweed, Amaranthus palmeri); experiment: as above; conditions: 10 days
Description: as §1, §2

[23] = tested on: corn (Zea mays); experiment: as above; conditions: 10 days
Description: as §1, §2

[24] = tested on: ducksalad (Heteranthera limosa); experiment: Test B flooded paddy test, visual plant response rating 0-100; conditions: 250 g ai/ha, Flood, applied to paddy water, evaluated after 13 days
Experimental: (§3) Plant species in the flooded paddy test selected from barnyardgrass (Echinochloa crusgalli), ducksalad (Heteranthera limosa), rice (Oryza sativa), and sedge, umbrella (small-flower umbrella sedge, Cyperus difformis) were grown to the 2-leaf stage for testing. At time of treatment, test pots were flooded to 3 cm above the soil surface, treated by application of test compounds directly to the paddy water, and then maintained at that water depth for the duration of the test. Treated plants and controls were maintained in a greenhouse for 13 days, after which time all species were compared to controls and visually evaluated. […] A dash (-) response means no test result.

[25] = tested on: barnyardgrass (Echinochloa crusgalli); experiment: as above; conditions: 250 g ai/ha, Flood, applied to paddy water, evaluated after 13 days
Experimental: as §3

[26] = tested on: rice (Oryza sativa); experiment: as above; conditions: 250 g ai/ha, Flood, applied to paddy water, evaluated after 13 days
Experimental: as §3

[27] = tested on: sedge, umbrella (small-flower umbrella sedge, Cyperus difformis); experiment: as above; conditions: 250 g ai/ha, Flood, applied to paddy water, evaluated after 13 days
Experimental: as §3

[28] = 31 g ai/ha, postemergence, 0 = no effect, 100 = complete control
[29] = Postemergence, 125 g ai/ha, 0 is no effect, 100 is complete control

Structure (SMILES): CCOC(=O)C1CCC(NC(=O)C2(C)CN(c3cc(F)cc(F)c3)C(=O)O2)C1 (centres unmarked) [Compound 11]
- Kochia plant response rating (0-100) ([1]; 31 g ai/ha): 0
- Kochia plant response rating (0 to 100 scale) ([1]; 125 g ai/ha): 50
- Barnyardgrass plant response rating (0-100) ([2]; 31 g ai/ha): 0
- Barnyardgrass plant response rating (0 to 100 scale) ([2]; 125 g ai/ha): 100
- Ryegrass, Italian plant response rating (0-100) ([3]; 31 g ai/ha): 40
- Ryegrass, Italian plant response rating (0 to 100 scale) ([3]; 125 g ai/ha): 90
- Oat, Wild plant response rating (0-100) ([4]; 31 g ai/ha): 20
- Oat, Wild plant response rating (0 to 100 scale) ([4]; 125 g ai/ha): 80
- Blackgrass plant response rating (0-100) ([5]; 31 g ai/ha): 20
- Blackgrass plant response rating (0 to 100 scale) ([5]; 125 g ai/ha): 90
- Wheat plant response rating (0-100) ([6]; 31 g ai/ha): 90
- Wheat plant response rating (0 to 100 scale) ([6]; 125 g ai/ha): 100
- Foxtail, Green plant response rating (0-100) ([7]; 31 g ai/ha): 0
- Foxtail, Green plant response rating (0 to 100 scale) ([7]; 125 g ai/ha): 100
- Ragweed plant response rating (0-100) ([8]; 31 g ai/ha): 0
- Ragweed plant response rating (0 to 100 scale) ([8]; 125 g ai/ha): 70
- Soybean plant response rating (0-100) ([9]; 31 g ai/ha): 0
- Soybean plant response rating (0 to 100 scale) ([9]; 125 g ai/ha): 20
- Amaranth, Palmer plant response rating (0-100) ([10]; 31 g ai/ha): 0
- Amaranth, Palmer plant response rating (0 to 100 scale) ([10]; 125 g ai/ha): 30
- Corn plant response rating (0-100) ([11]; 31 g ai/ha): 0
- Corn plant response rating (0 to 100 scale) ([11]; 125 g ai/ha): 50
- Kochia plant response rating (0-100) [12, 28]: 20
- Kochia plant response rating (0 to 100 scale) [12, 29]: 80
- Barnyardgrass plant response rating (0-100) [13, 28]: 60
- Barnyardgrass plant response rating (0 to 100 scale) [13, 29]: 100
- Ryegrass, Italian plant response rating (0-100) [14, 28]: 50
- Ryegrass, Italian plant response rating (0 to 100 scale) [14, 29]: 70
- Oat, Wild plant response rating (0-100) [15, 28]: 80
- Oat, Wild plant response rating (0 to 100 scale) [15, 29]: 90
- Blackgrass plant response rating (0-100) [16, 28]: 30
- Blackgrass plant response rating (0 to 100 scale) [16, 29]: 90
- Horseweed plant response rating (0-100) [17, 28]: 30
- Horseweed plant response rating (0 to 100 scale) [17, 29]: 20
- Wheat plant response rating (0-100) [18, 28]: 80
- Wheat plant response rating (0 to 100 scale) [18, 29]: 90
- Foxtail, Green plant response rating (0-100) [19, 28]: 30
- Foxtail, Green plant response rating (0 to 100 scale) [19, 29]: 90
- Ragweed plant response rating (0-100) [20, 28]: 0
- Ragweed plant response rating (0 to 100 scale) [20, 29]: 0
- Soybean plant response rating (0-100) [21, 28]: 50
- Soybean plant response rating (0 to 100 scale) [21, 29]: 60
- Amaranth, Palmer plant response rating (0-100) [22, 28]: 30
- Amaranth, Palmer / Pigweed, Palmer plant response rating (0 to 100 scale) [22, 29]: 60
- Corn plant response rating (0-100) [23, 28]: 10
- Corn plant response rating (0 to 100 scale) [23, 29]: 80
- Plant response rating, Ducksalad (0 to 100 scale, 0 is no effect and 100 is complete control) [24]: 65
- Plant response rating, Barnyardgrass (0 to 100 scale, 0 is no effect and 100 is complete control) [25]: 50
- Plant response rating, Rice (0 to 100 scale, 0 is no effect and 100 is complete control) [26]: 25
- Plant response rating, Sedge, Umbrella (0 to 100 scale, 0 is no effect and 100 is complete control) [27]: 60
